US20240058387A1, “CULTURE MEDIUM COMPOSITION FOR AMPLIFYING AND MAINTAINING SELF-RENEWAL CAPACITY AND DIFFERENTIATION POTENTIAL OF HSCS AND APPLICATION THEREOF” (EDIGENE (GUANGZHOU) INC., priority 2020, published 2024)

Tested on: umbilical cord blood-derived CD34+ cells
Test: Flow cytometry detection of HSC stemness markers (LT-HSCs CD34+CD45+CD90+CD45RA-CD38-) after small molecule induction
Assay type: cell-based, human
Experimental: According to the solubility and required solvent indicated in the instructions of the small molecule inhibitor (see Table 1 for the Cat. number of the small molecule inhibitor), the preparation of the small molecule inhibitor stock solution was carried out. Next, the hematopoietic stem cell medium was prepared: SFEM II medium (stem cell, Cat. number: 09655)+50 ng/ml growth factor Flt-3L (PeProtech, Cat. number: 300-100UG)+50 ng/ml growth factor SCF (PeProtech, Cat. number): 300-07-100UG)+50 ng/ml growth factor TPO (PeProtech, Cat. number: 300-18-100UG)+10 ng/ml interleukin IL-6 (PeProtech, Cat. number: 200-06-20UG)+1% bispecific antibody (HyClone, Cat. No.: sv30010). According to the set concentration gradient of the small molecule inhibitor, the stock solution and the basal medium were used to prepare the medium containing different concentrations of the small molecule inhibitor.
First, the prepared medium was added to a 24-well plate (Corning, Cat. number: 3473), 950 μl per well, and placing it in a carbon dioxide incubator (Thermo, model: 3111) to preheat; resuspending the spare umbilical cord Blood-derived HSCs of Example 1 with SFEM 11+50 ng/ml Flt-3L+50 ng/ml SCF+50 ng/ml TPO+10 ng/ml IL-6+1% bispecific antibody, calculating the medium volume to be added according to 50 μl cell suspension per well and 2*10^5/m1 cell density per well. For example, when the final volume of the cell culture solution per well was 1 ml, the total number of cells per well was 2*10^5 cells calculated according to the cell density per well, and the density of the […] of cell suspension supplemented to each well is 4*10^6/ml. The density of the spare HSCs of Example 1 was adjusted to the calculated density of the cell suspension, and adding it; taking out the preheated medium from the incubator, adding 50 μl of the cell suspension to each well, and after mixing, using the microscope (OLYMPUS, model: CKX53) to observe the cells state, and then putting it into an incubator for culturing.
20 μL of cells cultured for 6-8 days (D6-D8) in the above Example 2 was sampled for counting, taking out a suspension of 2*10^5 cells into a 1.5 ml centrifuge tube according to the counting result; centrifuging at 400 g for 5 min, discarding the supernatant. 100 μL of PBS (phosphate-buffered saline solution, HyClone, Cat. number: SH30256.01) containing 1% HSA (human serum albumin, Guangdong Shuanglin, Cat. number: S10970069) was taken, resuspending the cells, and vortexing to mix well for later use. Then, the cell sample in the control was collected. The number of cells and the collection method were the same as those of the sample cells to be tested. The controls were setting as the NC group and the ISO group respectively, selecting the cells from any sample or mixed cells of the samples to be tested in this batch of experiments, depending on the number of cells.
According to Table 3 above, the antibodies were added to the cell suspensions of the above-mentioned cell samples to be tested and control cell samples according to groups; vortexing to mix and incubating at room temperature for 15 min in the dark. After 15-min incubation, 1 ml of PBS containing 1% HSA was added to each test sample, mixing well, centrifuging at 400 g for 5 min at room temperature. After centrifugation, the supernatant was discarded, and the cells were resuspended in 100 μL of PBS containing 1% HSA for each test sample. Samples were stored at room temperature away from light before testing. […]

Structure (SMILES): COc1cc2ncc(-c3ccccc3)nc2cc1OC [AG1296]
- expansion fold of the ratio of LT-HSCs (CD34+CD45+CD90+CD45RA-CD38-), test group/control group (Mock) (FIG. 2, 6-8 days induction, 3 concentrations per inhibitor): more than 3 times
- maintaining the CD3+, CD34+CD90+, CD34+CD90+CD45RA- cell ratios (proportion in total cells) (FIG. 3A, 1 μM, 5 μM and 10 μM, 6 days, vs Mock): superior to the Mock group
- proportion of LT-HSC relative to AG1296 (500 nM) (FIG. 4A, 1 μM, 6 days): about 2 times
- proportion of LT-HSC relative to Mock group and AG1296 (100 nM) group (FIG. 4A, 1 μM, 6 days): about 3 times
- maintaining the ratio of CD34+, CD34+CD90+, and CD34+CD90+CD45RA- cells (FIG. 4A, 1 μM, 6 days, vs Mock, 100 nM and 500 nM): better than Mock group and at the concentrations of 100 nM and 500 nM
